Literature values, collected in US20240173338A1, “PREPARATION AND ACTIVITY CHARACTERIZATION OF CANNABICITRAN ENANTIOMERS” (University of North Carolina at Wilmington, priority 2022, published 2024).

What was measured:
[1] = rabbits
[2] = target: T1, 5-HT1A (Homo sapiens, UniProt P08908)
T1 sequence (P08908 1-422): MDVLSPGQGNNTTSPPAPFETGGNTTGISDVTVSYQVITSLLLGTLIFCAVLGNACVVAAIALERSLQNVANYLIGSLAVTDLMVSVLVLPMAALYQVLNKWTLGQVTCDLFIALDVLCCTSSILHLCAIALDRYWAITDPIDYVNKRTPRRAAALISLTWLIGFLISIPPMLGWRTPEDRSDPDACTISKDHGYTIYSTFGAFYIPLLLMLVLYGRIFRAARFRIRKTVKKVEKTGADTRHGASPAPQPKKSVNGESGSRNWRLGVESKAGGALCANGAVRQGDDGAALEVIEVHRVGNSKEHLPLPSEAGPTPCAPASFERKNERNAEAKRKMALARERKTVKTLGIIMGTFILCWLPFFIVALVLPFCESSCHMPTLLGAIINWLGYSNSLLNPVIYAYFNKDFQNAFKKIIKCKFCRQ

[3] = system: multiple TRPs
[4] = target: GPR55 (Homo sapiens, UniProt Q9Y2T6)
Sequence of GPR55 (Q9Y2T6 whole entry, species assumed): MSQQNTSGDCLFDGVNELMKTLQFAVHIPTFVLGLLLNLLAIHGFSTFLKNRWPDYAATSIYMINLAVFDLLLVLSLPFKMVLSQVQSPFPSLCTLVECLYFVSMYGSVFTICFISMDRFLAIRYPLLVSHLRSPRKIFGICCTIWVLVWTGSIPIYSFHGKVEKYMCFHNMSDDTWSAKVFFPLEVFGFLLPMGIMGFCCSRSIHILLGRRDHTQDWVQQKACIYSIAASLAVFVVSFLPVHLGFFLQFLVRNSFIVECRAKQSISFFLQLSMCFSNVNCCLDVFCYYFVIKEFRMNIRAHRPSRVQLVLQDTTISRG

[5] = target: CB1 (Homo sapiens, UniProt P21554)
Sequence of CB1 (P21554 whole entry, species assumed): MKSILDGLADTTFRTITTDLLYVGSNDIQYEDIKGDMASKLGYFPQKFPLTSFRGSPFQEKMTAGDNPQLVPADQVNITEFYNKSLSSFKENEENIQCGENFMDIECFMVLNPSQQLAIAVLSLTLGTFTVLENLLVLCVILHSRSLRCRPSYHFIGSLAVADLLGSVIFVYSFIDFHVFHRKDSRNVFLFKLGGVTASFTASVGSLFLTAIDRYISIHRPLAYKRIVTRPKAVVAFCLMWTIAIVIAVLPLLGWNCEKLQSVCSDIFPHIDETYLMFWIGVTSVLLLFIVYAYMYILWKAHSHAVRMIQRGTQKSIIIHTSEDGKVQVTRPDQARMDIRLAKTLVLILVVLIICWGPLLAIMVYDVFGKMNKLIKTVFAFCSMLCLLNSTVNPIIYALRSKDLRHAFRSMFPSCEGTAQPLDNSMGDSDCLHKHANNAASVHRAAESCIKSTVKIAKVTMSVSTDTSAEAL

[6] = target: CB2 (Homo sapiens, UniProt P34972)
Sequence of CB2 (P34972 whole entry, species assumed): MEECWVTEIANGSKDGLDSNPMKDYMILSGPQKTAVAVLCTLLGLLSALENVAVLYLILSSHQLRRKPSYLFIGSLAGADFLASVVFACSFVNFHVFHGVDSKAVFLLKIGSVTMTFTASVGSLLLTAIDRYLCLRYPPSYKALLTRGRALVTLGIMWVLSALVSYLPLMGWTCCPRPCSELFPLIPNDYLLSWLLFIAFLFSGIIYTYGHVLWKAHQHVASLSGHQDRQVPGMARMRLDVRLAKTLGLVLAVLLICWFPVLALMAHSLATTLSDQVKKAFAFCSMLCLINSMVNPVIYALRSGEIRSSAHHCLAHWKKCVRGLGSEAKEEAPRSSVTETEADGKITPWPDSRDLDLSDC

## CCCCCc1cc2c3c(c1)O[C@]1(C)CC[C@@H]([C@H]3C1)C(C)(C)O2 [CBT-C (3), cannabicitran]
[1]
  effect on intraocular pressure: reduces intraocular pressure

## trans-CBD [(−)-2]
[2]
  binding to 5-HT1A: known to bind
[3]
  binding to multiple TRPs: known to bind
[4]
  binding to GPR55: known to bind

## trans-CBD [(+)-2]
[5]
  binding to CB1: bind strongly
[6]
  binding to CB2: bind strongly
